Test results from patent US11286243B2 (GLOBAL BLOOD THERAPEUTICS, INC., priority 2018, dated 2022).

target: T1, human ferroportin (Homo sapiens, UniProt Q9NP59); assay: In-vitro ferroportin internalization assay (luciferase reporter); format: cell-based; details: average pEC50; stably-transfected CHO cell line expressing human ferroportin tagged to a luciferase reporter; 6 h incubation with test compounds
T1 construct: luciferase reporter (probably NanoLuc: read with the Nano-Glo Luciferase Assay System); expressed in transfected cells; host or cells: CHO cells, stably transfected, doxycycline-inducible expression
T1 sequence (Q9NP59 1-571): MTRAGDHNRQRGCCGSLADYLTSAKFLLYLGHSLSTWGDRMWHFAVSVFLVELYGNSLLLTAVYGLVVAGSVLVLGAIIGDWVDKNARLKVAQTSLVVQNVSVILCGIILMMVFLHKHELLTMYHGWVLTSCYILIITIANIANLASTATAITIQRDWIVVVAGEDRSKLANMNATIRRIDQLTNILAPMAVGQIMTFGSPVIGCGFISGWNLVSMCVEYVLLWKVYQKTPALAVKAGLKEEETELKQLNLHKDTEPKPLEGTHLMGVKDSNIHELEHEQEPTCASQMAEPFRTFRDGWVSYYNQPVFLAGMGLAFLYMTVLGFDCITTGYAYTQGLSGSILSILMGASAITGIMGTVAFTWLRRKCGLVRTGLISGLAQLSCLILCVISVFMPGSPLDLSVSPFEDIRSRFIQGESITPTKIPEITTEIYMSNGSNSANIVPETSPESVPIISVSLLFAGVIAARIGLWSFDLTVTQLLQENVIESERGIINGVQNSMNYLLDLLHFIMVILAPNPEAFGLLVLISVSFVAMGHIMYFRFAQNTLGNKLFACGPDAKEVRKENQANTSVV
Procedure: The protocol for this assay is generally as described in WO2018/128828, incorporated herein by reference in its entirety. Functional internalization of ferroportin protein was measured using a stably-transfected CHO cell line expressing the human ferroportin tagged to a luciferase reporter. Cells were plated for 24 h in the presence of ferric ammonium citrate (FAC). Ferroportin protein expression was induced with doxycycline for 24 h. The next day, the compounds were added. Test compounds were dissolved in DMSO. Cells were incubated with the test compounds for 6 h, and subsequently luciferase activity was measured using the Nano-Glo Luciferase Assay System and Glomax (Promega, Madison, Wis.).
The average pEC50 was determined for the test compounds.

Compared with `Fc1cccnc1CNc1ncnc2sc(CCNCCc3nc4ccccc4[nH]3)nc12` [Compound 1, 2-(2-{[2-(1H-1,3-benzodiazol-2-yl)ethyl]amino}ethyl)-N-[(3-fluoropyridin-2-yl)methyl]-[1,3]thiazolo[5,4-d]pyrimidin-7-amine], `Fc1cccnc1CNc1ncnc2sc(CCNCc3nc4ccccc4[nH]3)nc12` [Compound 7, 2-(2-{[(1H-1,3-benzodiazol-2-yl)methyl]amino}ethyl)-N-[(3-fluoropyridin-2-yl)methyl]-[1,3]thiazolo[5,4-d]pyrimidin-7-amine] is lower in pEC50: 7.8 for the first, 6.7 for the second.

Compared with `Fc1cccnc1CNc1ncnc2oc(CCNCCc3nc4ccccc4[nH]3)nc12` [Compound 2, 2-(2-{[2-(1H-1,3-benzodiazol-2-yl)ethyl]amino}ethyl)-N-[(3-fluoropyridin-2-yl)methyl]-[1,3]oxazolo[5,4-d]pyrimidin-7-amine], `Fc1cccnc1CNc1nccc2oc(CCNCCc3nc4ccccc4[nH]3)nc12` [Compound 13, 2-(2-{[2-(1H-1,3-benzodiazol-2-yl)ethyl]amino}ethyl)-N-[(3-fluoropyridin-2-yl)methyl]-[1,3]oxazolo[4,5-c]pyridin-4-amine] is higher in pEC50: 7.3 for the first, 8 for the second.

Compared with `Fc1ccc2[nH]c(CCNCCc3nc4c(NCc5ncccc5F)ncnc4s3)nc2c1` [Compound 3, 2-(2-{[2-(5-fluoro-1H-1,3-benzodiazol-2-yl)ethyl]amino}ethyl)-N-[(3-fluoropyridin-2-yl)methyl]-[1,3]thiazolo[5,4-d]pyrimidin-7-amine], `COC(=O)c1ccc2[nH]c(CCNCCc3nc4c(NCc5ncccc5F)ncnc4s3)nc2c1` [Compound 27, Methyl 2-(2-{[2-(7-{[(3-fluoropyridin-2-yl)methyl]amino}-[1,3]thiazolo[5,4-d]pyrimidin-2-yl)ethyl]amino}ethyl)-1H-1,3-benzodiazole-5-carboxylate] is lower in pEC50: 7.1 for the first, 6.2 for the second.

Going from `c1ccc(CNc2ncnc3sc(CCNCCc4nc5ccccc5[nH]4)nc23)cc1` [Compound 4, 2-(2-{[2-(1H-1,3-benzodiazol-2-yl)ethyl]amino}ethyl)-N-benzyl-[1,3]thiazolo[5,4-d]pyrimidin-7-amine] to `c1ccc(CNc2ncnc3sc(CCNCCc4nc5ccccc5[nH]4)nc23)nc1` [Compound 5, 2-(2-{[2-(1H-1,3-benzodiazol-2-yl)ethyl]amino}ethyl)-N-[(pyridin-2-yl)methyl]-[1,3]thiazolo[5,4-d]pyrimidin-7-amine], the pEC50 rises from 6.6 to 6.8.

Compared with `Clc1cccnc1CNc1ncnc2sc(CCNCCc3nc4ccccc4[nH]3)nc12` [Compound 6, 2-(2-{[2-(1H-1,3-benzodiazol-2-yl)ethyl]amino}ethyl)-N-[(3-chloropyridin-2-yl)methyl]-[1,3]thiazolo[5,4-d]pyrimidin-7-amine], `Cc1cccnc1CNc1ncnc2sc(CCNCCc3nc4ccccc4[nH]3)nc12` [Compound 12, 2-(2-{[2-(1H-1,3-benzodiazol-2-yl)ethyl]amino}ethyl)-N-[(3-methylpyridin-2-yl)methyl]-[1,3]thiazolo[5,4-d]pyrimidin-7-amine] is lower in pEC50: 7.8 for the first, 7.3 for the second.

`Fc1ccc(CNc2ncnc3sc(CCNCCc4nc5ccccc5[nH]4)nc23)nc1` [Compound 8, 2-(2-{[2-(1H-1,3-benzodiazol-2-yl)ethyl]amino}ethyl)-N-[(5-fluoropyridin-2-yl)methyl]-[1,3]thiazolo[5,4-d]pyrimidin-7-amine] and `c1cnc(CNc2ncnc3sc(CCNCCc4nc5ccccc5[nH]4)nc23)nc1` [Compound 9, 2-(2-{[2-(1H-1,3-benzodiazol-2-yl)ethyl]amino}ethyl)-N-[(pyrimidin-2-yl)methyl]-[1,3]thiazolo[5,4-d]pyrimidin-7-amine] are within 0.2 log units of each other in pEC50: 6.4 for the first, 6.3 for the second.

Compared with `CN(CCc1nc2ccccc2[nH]1)CCc1nc2c(NCc3ncccc3F)ncnc2s1` [Compound 10, 2-(2-{[2-(1H-1,3-benzodiazol-2-yl)ethyl](methyl)amino}ethyl)-N-[(3-fluoropyridin-2-yl)methyl]-[1,3]thiazolo[5,4-d]pyrimidin-7-amine], `C[C@H](Cc1nc2c(NCc3ncccc3F)ncnc2s1)NCCc1nc2ccccc2[nH]1` [Compound 26, 2-[(2R)-2-{[2-(1H-1,3-benzodiazol-2-yl)ethyl]amino}propyl]-N-[(3-fluoropyridin-2-yl)methyl]-[1,3]thiazolo[5,4-d]pyrimidin-7-amine] is higher in pEC50: 5.7 for the first, 6.5 for the second.

Compared with `COc1cccnc1CNc1ncnc2sc(CCNCCc3nc4ccccc4[nH]3)nc12` [Compound 11, 2-(2-{[2-(1H-1,3-benzodiazol-2-yl)ethyl]amino}ethyl)-N-[(3-methoxypyridin-2-yl)methyl]-[1,3]thiazolo[5,4-d]pyrimidin-7-amine], `[N-]=[N+]=Nc1cccnc1CNc1ncnc2sc(CCNCCc3nc4ccccc4[nH]3)nc12` [Compound 17, N-[(3-azidopyridin-2-yl)methyl]-2-(2-{[2-(1H-1,3-benzodiazol-2-yl)ethyl]amino}ethyl)-[1,3]thiazolo[5,4-d]pyrimidin-7-amine] is higher in pEC50: 6.7 for the first, 7.7 for the second.

Compared with `Fc1cccnc1CNc1nccc2sc(CCNCCc3nc4ccccc4[nH]3)nc12` [Compound 14, 2-(2-{[2-(1H-1,3-benzodiazol-2-yl)ethyl]amino}ethyl)-N-[(3-fluoropyridin-2-yl)methyl]-[1,3]thiazolo[4,5-c]pyridin-4-amine], `COc1cc2sc(CCNCCc3nc4ccccc4[nH]3)nc2c(NCc2ncccc2F)n1` [Compound 19, 2-(2-{[2-(1H-1,3-benzodiazol-2-yl)ethyl]amino}ethyl)-N-[(3-fluoropyridin-2-yl)methyl]-6-methoxy-[1,3]thiazolo[4,5-c]pyridin-4-amine] is lower in pEC50: 7.8 for the first, 6.2 for the second.

Going from `Fc1cccnc1CNc1ncnc2sc(CCNCCc3nc4c(F)cccc4[nH]3)nc12` [Compound 15, 2-(2-{[2-(4-fluoro-1H-1,3-benzodiazol-2-yl)ethyl]amino}ethyl)-N-[(3-fluoropyridin-2-yl)methyl]-[1,3]thiazolo[5,4-d]pyrimidin-7-amine] to `Nc1nc(NCc2ncccc2F)c2nc(CCNCCc3nc4ccccc4[nH]3)sc2n1` [Compound 21, 2-(2-{[2-(1H-1,3-benzodiazol-2-yl)ethyl]amino}ethyl)-N7-[(3-fluoropyridin-2-yl)methyl]-[1,3]thiazolo[5,4-d]pyrimidine-5,7-diamine], the pEC50 falls from 6.8 to 6.2.

Compared with `Fc1cccnc1CNc1ncnc2sc(CCNCCc3nc4ccccc4o3)nc12` [Compound 16, 2-(2-{[2-(1,3-benzoxazol-2-yl)ethyl]amino}ethyl)-N-[(3-fluoropyridin-2-yl)methyl]-[1,3]thiazolo[5,4-d]pyrimidin-7-amine], `Oc1nc(NCc2ncccc2F)c2nc(CCNCCc3nc4ccccc4[nH]3)sc2n1` [Compound 23, 2-(2-{[2-(1H-1,3-benzodiazol-2-yl)ethyl]amino}ethyl)-7-{[(3-fluoropyridin-2-yl)methyl]amino}-[1,3]thiazolo[5,4-d]pyrimidin-5-ol] is higher in pEC50: 5.6 for the first, 8.8 for the second.

`COc1nc(NCc2ncccc2F)c2nc(CCNCCc3nc4ccccc4[nH]3)sc2n1` [Compound 18, 2-(2-{[2-(1H-1,3-benzodiazol-2-yl)ethyl]amino}ethyl)-N-[(3-fluoropyridin-2-yl)methyl]-5-methoxy-[1,3]thiazolo[5,4-d]pyrimidin-7-amine] and `CC(CNCCc1nc2ccccc2[nH]1)c1nc2c(NCc3ncccc3F)ncnc2s1` (stereo not drawn) [Compound 24, 2-(1-{[2-(1H-1,3-benzodiazol-2-yl)ethyl]amino}propan-2-yl)-N-[(3-fluoropyridin-2-yl)methyl]-[1,3]thiazolo[5,4-d]pyrimidin-7-amine] are within 0.2 log units of each other in pEC50: 5.7 for the first, 5.8 for the second.

First: Fc1cccnc1CNc1ncnc2sc(C3CN(CCc4nc5ccccc5[nH]4)C3)nc12 [Compound 20, 2-{1-[2-(1H-1,3-benzodiazol-2-yl)ethyl]azetidin-3-yl}-N-[(3-fluoropyridin-2-yl)methyl]-[1,3]thiazolo[5,4-d]pyrimidin-7-amine]
Second: Fc1cccnc1CNc1ncnc2sc(C3(F)CN(CCc4nc5ccccc5[nH]4)C3)nc12 [Compound 25, 2-{1-[2-(1H-1,3-benzodiazol-2-yl)ethyl]-3-fluoroazetidin-3-yl}-N-[(3-fluoropyridin-2-yl)methyl]-[1,3]thiazolo[5,4-d]pyrimidin-7-amine]
The pEC50 of the first is higher: 7.5 for the first, 6.3 for the second.

Molecule `C#CCCC1(CCC(=O)Nc2ccc3[nH]c(CCNCCc4nc5c(NCc6ncccc6F)ncnc5s4)nc3c2)N=N1` [Compound 22, 3-[3-(but-3-yn-1-yl)-3H-diazirin-3-yl]-N-[2-(2-{[2-(7-{[(3-fluoropyridin-2-yl)methyl]amino}-[1,3]thiazolo[5,4-d]pyrimidin-2-yl)ethyl]amino}ethyl)-1H-1,3-benzodiazol-5-yl]propanamide] has a pEC50 of 6.5.
